According to patent publication US20220409617A1, “Drug Formulations and Methods of Treatment for Metabolic Disorders” (The Regents of the University of California, priority 2019, published 2022):

Experiments:
[1] = system: leptin; test: Serum leptin ELISA in HFD-fed mice; assay type: in vivo, mouse
Description: Further assessment was performed to determine the level of leptin circulating in HFD-fed mice treated with sphingolipid-like compound 893. Mice were fed a HFD for 4 weeks and randomly distributed into two groups with the same mean weight. Mice were gavaged with water (n=7) or 120 mg/kg 893 (n=8) at ZT8.5. Blood was collected from the saphenous vein between ZT15-18 in pairs of treated vs. untreated animals and leptin levels were measured in serum using ELISA (CrystalChem, cat #90030).

[2] = system: diet-induced obesity; test: Weight loss intervention study in HFD-fed mice; assay type: in vivo
Description: Given its ability to correct HFD-induced mitochondrial fragmentation in vivo, sphingolipid-like compound 893 was evaluated as an interventional therapy for diet-induced obesity. Six-week old male, C57BL/6J mice were fed the HFD for 45 days; an age-matched cohort of control mice was maintained on the SD throughout the study. After 45 days, the average body weight of HFD-fed mice was approximately 130% that of chow-fed mice (FIGS. 15 to 17). Using quantitative nuclear magnetic resonance imaging, fat mass represented 21% of the body weight of mice that had consumed the HFD for 45 days and 12% of body weight in controls fed the standard diet; changes in lean body mass were of lesser magnitude (FIG. 17). At this point, HFD-fed mice were randomly assigned to receive vehicle (water), 60 mg/kg, or 120 mg/kg sphingolipid-like compound 893 by gavage; SD mice were treated with vehicle. Based on the increased activity of mice during the dark cycle (ZT12-ZT24) and the plasma pharmacokinetics of orally administered sphingolipid-like compound 893 (see FIG. 12), mice were treated at ZT8.5 on Mondays, Wednesdays, and Fridays. […] In the group receiving 120 mg/kg sphingolipid-like compound 893, the rate of weight loss slowed after 10 days. […] Despite continued treatment with the high dose of sphingolipid-like compound 893, weight loss plateaued once body weight matched that of SD controls (FIGS. 16 and 18). […] As in a prior report where mice were dosed 5-7 days a week for 11 weeks (S. M. Kim, et al., 2016, cited supra), sphingolipid-like compound 893 was well-tolerated, and the behavior of sphingolipid-like compound 893-treated mice was overtly normal throughout the study.
All animal experiments were performed in accordance with the Institutional Animal Care and Use Committee of University of California, Irvine. Male mice were used in all experiments. C57BL/6J mice (stock no 000664) and ob/ob mice (stock no 000632) were purchased from the Jackson Laboratory and were acclimated for 7 days prior to beginning experiments. Mice were housed under a 12:12 h light-dark cycle at 20-22° C. in groups of 4-5. Cages contained ⅛″ corncob bedding (7092A, Envigo, Huntingdon, UK) enriched with ˜6 g of cotton fiber nestlets (Ancare Corp., Bellmore, N.Y.). Access to food and water was ad libitum unless otherwise specified. For HFD studies, 8 week old C57BL/6J males were randomly assigned to either a 45% kcal from fat diet (HFD; D12451, Research Diets Inc., New Brunswick, N.J.) or 10% kcal from fat diet designed to match D12451 for other components (SD; D12450B, Research Diets Inc). Mice were maintained on these diets for up to 22 weeks as indicated. Ob/ob mice were fed the vivarium stock diet which contained 16% kcal from fat (2020×, Envigo). Polypropylene feeding tubes (20 g×38 mm; Instech Laboratories Inc., Plymouth, Pa.) were utilized for gavage and dipped into a 1 g/ml sucrose solution immediately prior to treatment to induce salivation.
HFD-fed mice were randomly assigned to experimental groups receiving either vehicle (water) or sphingolipid-like compound 893 at 60 mg/kg or 120 mg/kg by oral gavage on Mondays, Wednesdays, and Fridays. Mice were maintained on the HFD throughout the study. The SD group was treated with vehicle on the same schedule. Group size was initially n=10; one animal from the 60 mg/kg group that was euthanized due to gavage error was excluded from the analysis making this group n=9. All treatments and measurements were performed between ZT8 and ZT10 unless otherwise noted. Body weight and food consumption were monitored Monday-Friday. Body composition was determined weekly in live animals using an EchoMRI™ Body Composition Analyzer (EchoMRI™ Corp., Singapore). Mice were euthanized and tissues collected 4 h after treatment. Where indicated, mice were fasted for 6 h.

`CCCCCCCCc1ccc([C@H]2CCN[C@@H]2CO)cc1.Cl` [compound 893] was tested, and the “Leptin production by adipocytes” value ([1]; in vivo) was “reduced leptin production by adipocytes in vivo”, the “Circulating leptin levels (serum)” value ([1]; mice on HFD 4 weeks, 120 mg/kg at ZT8.5, blood at ZT15-18) was “lowered levels of circulating leptin” and the Fat mass gain ([2]; HFD-fed mice, 60 mg/kg) was “gained fat mass at a similar rate to mice fed a standard diet”. For the same compound, the “Body weight versus chow-fed controls” value ([2]; HFD-fed mice, 60 mg/kg by gavage Mon/Wed/Fri) was “no longer gained weight, but did not match chow-fed controls”, the “Body weight change during treatment” value ([2]; HFD-fed mice, 60 mg/kg or 120 mg/kg by gavage Mon/Wed/Fri) was “dose-dependent weight loss” and the “Body weight versus chow-fed controls” value ([2]; HFD-fed mice, 120 mg/kg by gavage Mon/Wed/Fri, after 2 weeks (6 doses)) was “no longer statistically different from that of mice continuously fed a standard chow diet”. For the same compound, the Tolerability ([2]; HFD-fed mice, 60 or 120 mg/kg Mon/Wed/Fri) was “well-tolerated”, the “Body composition underlying weight loss (fat mass, lean mass)” value ([2]; HFD-fed mice, 60 or 120 mg/kg, EchoMRI) was “a decline in fat mass with little change in lean mass” and the “Reduction of body weight” value ([2]; HFD-fed wild type mice, six doses of 120 mg/kg over 2 weeks) was 10%.
